19 compounds from US20250236608A1, “EGFR INHIBITORS” (Blueprint Medicines Corporation, priority 2022, published 2025) can be followed below.

Test [1] concerns the target pEGFR (Tyr1068) in PC-9 cells (Ex19Del) (Homo sapiens (Human), UniProt P00533, DEL746-750). Nature of the test: PC-9 pEGFR AlphaLISA assay. In kind it is cell-based. The note with it: 4 hours incubation, p-EGFR (Tyr1068) AlphaLISA, read-out: Ext pEGFR_PC-9 Ex19Del IC50. The gist of the method: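 Cells seeded in phenol-free DMEM with 10% FBS adhered overnight at 37° C./5% CO2, then were exposed for 4 hours to a 4-fold, 10-point compound dilution series. After lysis, phospho-EGFR was read by AlphaLISA SureFire Ultra, and IC50 was fitted from percent inhibition versus log concentration.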

In a further test the target is EGFR L858R (Homo sapiens (Human), UniProt P00533, L858R). Nature of the test: Biochemical EGFR inhibition assay, EGFR L858R. The note with it: Caliper mobility shift; 1.0 mM ATP or ATP Km; read-out: Enz EGFR_L858R IC50.
Chain of EGFR L858R (P00533 25-1210 L858R): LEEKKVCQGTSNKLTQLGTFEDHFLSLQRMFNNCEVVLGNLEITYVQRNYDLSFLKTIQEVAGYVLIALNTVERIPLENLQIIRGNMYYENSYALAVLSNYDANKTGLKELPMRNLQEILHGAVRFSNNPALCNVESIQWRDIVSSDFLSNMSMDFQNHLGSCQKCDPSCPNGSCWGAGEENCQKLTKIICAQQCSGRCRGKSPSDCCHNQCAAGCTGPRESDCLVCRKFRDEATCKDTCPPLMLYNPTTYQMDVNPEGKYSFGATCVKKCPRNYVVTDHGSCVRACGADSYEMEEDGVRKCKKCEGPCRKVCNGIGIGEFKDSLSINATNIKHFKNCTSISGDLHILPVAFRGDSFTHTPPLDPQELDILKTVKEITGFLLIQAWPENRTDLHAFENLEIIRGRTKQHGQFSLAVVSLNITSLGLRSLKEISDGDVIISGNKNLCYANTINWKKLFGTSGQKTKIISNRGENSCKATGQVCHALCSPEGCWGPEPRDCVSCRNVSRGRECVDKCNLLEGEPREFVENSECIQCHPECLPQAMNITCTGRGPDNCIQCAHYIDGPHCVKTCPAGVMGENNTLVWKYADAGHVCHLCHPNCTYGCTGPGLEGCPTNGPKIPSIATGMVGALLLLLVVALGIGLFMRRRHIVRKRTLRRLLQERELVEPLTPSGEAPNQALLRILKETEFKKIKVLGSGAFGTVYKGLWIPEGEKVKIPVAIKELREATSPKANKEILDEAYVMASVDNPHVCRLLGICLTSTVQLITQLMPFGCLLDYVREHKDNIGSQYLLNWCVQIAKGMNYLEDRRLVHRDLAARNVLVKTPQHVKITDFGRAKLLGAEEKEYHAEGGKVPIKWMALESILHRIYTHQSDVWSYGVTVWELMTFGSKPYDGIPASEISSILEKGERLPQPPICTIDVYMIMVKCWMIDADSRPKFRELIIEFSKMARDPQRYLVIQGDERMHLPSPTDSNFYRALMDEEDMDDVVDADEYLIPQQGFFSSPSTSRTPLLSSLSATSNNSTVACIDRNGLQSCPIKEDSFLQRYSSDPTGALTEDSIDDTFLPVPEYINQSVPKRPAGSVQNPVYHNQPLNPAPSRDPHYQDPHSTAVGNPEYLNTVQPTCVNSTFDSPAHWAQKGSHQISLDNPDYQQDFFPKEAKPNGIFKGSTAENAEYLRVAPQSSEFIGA
For a further test, the target named is EGFR (d746-750) (Homo sapiens (Human), UniProt P00533, DEL746-750). The experiment in a line: Biochemical EGFR inhibition assay, EGFR (d746-750). The note with it: Caliper mobility shift; 1.0 mM ATP or ATP Km; read-out: Enz EGFR_Exon19-del746-750 IC50.
Chain of EGFR (d746-750) (P00533 other isoform, or with tags, fused parts or gaps del 1-694/del 746-750 limits assumed): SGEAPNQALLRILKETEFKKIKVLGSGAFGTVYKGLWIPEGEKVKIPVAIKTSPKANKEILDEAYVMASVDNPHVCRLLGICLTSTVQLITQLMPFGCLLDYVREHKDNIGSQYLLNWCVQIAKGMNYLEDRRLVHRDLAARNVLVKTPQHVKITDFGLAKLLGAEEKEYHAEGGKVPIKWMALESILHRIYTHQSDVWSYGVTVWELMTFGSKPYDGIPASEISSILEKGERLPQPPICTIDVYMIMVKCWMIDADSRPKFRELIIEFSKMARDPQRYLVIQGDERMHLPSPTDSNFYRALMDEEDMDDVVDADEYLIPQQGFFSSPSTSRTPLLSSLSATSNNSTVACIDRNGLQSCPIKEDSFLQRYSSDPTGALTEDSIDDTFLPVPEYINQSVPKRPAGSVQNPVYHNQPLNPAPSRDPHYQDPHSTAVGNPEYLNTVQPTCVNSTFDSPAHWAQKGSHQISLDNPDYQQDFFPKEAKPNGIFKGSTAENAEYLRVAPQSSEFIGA

Chain of pEGFR (Tyr1068) in PC-9 cells (Ex19Del) (P00533 other isoform, or with tags, fused parts or gaps del 746-750): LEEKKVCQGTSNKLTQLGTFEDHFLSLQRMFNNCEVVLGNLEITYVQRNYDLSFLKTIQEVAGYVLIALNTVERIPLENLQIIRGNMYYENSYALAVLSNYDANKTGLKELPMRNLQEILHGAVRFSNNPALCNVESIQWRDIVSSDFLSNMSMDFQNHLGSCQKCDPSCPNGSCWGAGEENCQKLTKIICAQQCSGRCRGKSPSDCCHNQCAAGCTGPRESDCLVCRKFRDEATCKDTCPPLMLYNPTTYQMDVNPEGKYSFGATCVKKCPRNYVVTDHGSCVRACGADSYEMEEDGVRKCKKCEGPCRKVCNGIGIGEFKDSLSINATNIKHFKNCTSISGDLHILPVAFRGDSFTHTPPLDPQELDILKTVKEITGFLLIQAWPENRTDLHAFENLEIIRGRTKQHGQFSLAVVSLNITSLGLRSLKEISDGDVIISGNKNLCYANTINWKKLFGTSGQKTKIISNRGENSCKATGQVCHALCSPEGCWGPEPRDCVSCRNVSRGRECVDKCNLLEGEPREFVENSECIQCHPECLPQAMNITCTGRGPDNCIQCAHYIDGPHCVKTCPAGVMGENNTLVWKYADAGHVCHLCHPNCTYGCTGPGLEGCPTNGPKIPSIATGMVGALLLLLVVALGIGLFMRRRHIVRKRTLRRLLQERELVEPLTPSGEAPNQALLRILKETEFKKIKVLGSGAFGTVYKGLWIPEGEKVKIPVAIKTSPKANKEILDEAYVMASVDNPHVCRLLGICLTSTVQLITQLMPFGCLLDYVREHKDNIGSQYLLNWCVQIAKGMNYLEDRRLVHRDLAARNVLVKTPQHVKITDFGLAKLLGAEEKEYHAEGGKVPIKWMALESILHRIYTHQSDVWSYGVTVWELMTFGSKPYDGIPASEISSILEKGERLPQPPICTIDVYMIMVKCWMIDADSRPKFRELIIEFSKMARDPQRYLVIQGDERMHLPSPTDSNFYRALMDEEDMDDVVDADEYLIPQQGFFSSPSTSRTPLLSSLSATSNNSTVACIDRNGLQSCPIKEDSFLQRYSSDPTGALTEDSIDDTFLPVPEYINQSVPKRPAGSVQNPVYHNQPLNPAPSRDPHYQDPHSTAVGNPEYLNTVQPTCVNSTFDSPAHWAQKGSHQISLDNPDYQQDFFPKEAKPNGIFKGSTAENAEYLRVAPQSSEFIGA

As a reminder, the IC50 is the point on the concentration scale where inhibition reaches its midpoint. Consider `COc1cc2ncnc(-c3cn(C)nc3-c3ccccc3)c2nc1NC(=O)C12CC(C1)C2` [Example 309, N-(7-methoxy-4-(1-methyl-3-phenyl-1H-pyrazol-4-yl)pyrido[3,2-d]pyrimidin-6-yl)bicyclo[1.1.1]pentane-1-carboxamide], for which the IC50 in test [1] worked out at 2.8 nM; on EGFR L858R, 3.1 nM; at EGFR (d746-750), 1.9 nM.

In the case of `COc1cc2ncnc(-c3cn(C)nc3-c3ccccc3)c2nc1NC(=O)c1cn(C(C)C)nc1C` [Example 310, 1-isopropyl-N-(7-methoxy-4-(1-methyl-3-phenyl-1H-pyrazol-4-yl)pyrido[3,2-d]pyrimidin-6-yl)-3-methyl-1H-pyrazole-4-carboxamide], the results for the IC50 (in test [1]; on EGFR L858R; at EGFR (d746-750)) were 3.1 nM, 3.4 nM and 1.3 nM, respectively.

Turning to `CCOc1cc2ncnc(-c3cn(C)nc3-c3ccccc3)c2nc1NC(=O)C12CC(C1)C2` [Example 311, N-(7-ethoxy-4-(1-methyl-3-phenyl-1H-pyrazol-4-yl)pyrido[3,2-d]pyrimidin-6-yl)bicyclo[1.1.1]pentane-1-carboxamide], the values for the IC50 (in test [1]; at EGFR L858R; at EGFR (d746-750)) were 2.1 nM, 3.4 nM and 1.9 nM, respectively.

`COc1cc2ncnc(-c3cn(C)nc3-c3ccccc3)c2nc1NC(=O)c1ccc(F)cc1` [Example 312, 4-fluoro-N-(7-methoxy-4-(1-methyl-3-phenyl-1H-pyrazol-4-yl)pyrido[3,2-d]pyrimidin-6-yl)benzamide]: the IC50 in test [1] came out at 8.8 nM; on EGFR L858R, 6.9 nM; at EGFR (d746-750) it was 3.2 nM.

For the compound `COc1cc2ncnc(-c3cn(C)nc3-c3ccccc3)c2nc1NC(=O)c1cccc(F)c1` [Example 313, 3-fluoro-N-(7-methoxy-4-(1-methyl-3-phenyl-1H-pyrazol-4-yl)pyrido[3,2-d]pyrimidin-6-yl)benzamide], the IC50 in test [1] amounted to 3.8 nM; at EGFR L858R, 2.7 nM; on EGFR (d746-750) it was 0.8 nM.

As for `CCn1cc(-c2ncnc3cc(OC)c(NC(=O)c4cnn(C(F)(F)F)c4)nc23)c(-c2ccccc2)n1` [Example 314, N-(4-(1-ethyl-3-phenyl-1H-pyrazol-4-yl)-7-methoxypyrido[3,2-d]pyrimidin-6-yl)-1-(trifluoromethyl)-1H-pyrazole-4-carboxamide], the IC50 in test [1] was 1.1 nM; at EGFR L858R it was 1.4 nM; at EGFR (d746-750), 0.8 nM.

Consider `CCn1cc(-c2ncnc3cc(OC)c(NC(=O)C45CC(C4)C5)nc23)c(-c2ccccc2)n1` [Example 315, N-(4-(1-ethyl-3-phenyl-1H-pyrazol-4-yl)-7-methoxypyrido[3,2-d]pyrimidin-6-yl)bicyclo[1.1.1]pentane-1-carboxamide], for which the results for the IC50 (in test [1]; on EGFR L858R; on EGFR (d746-750)) were 0.6 nM, 1.7 nM and 1.1 nM, respectively.

Take `COc1cc2ncnc(-c3cn(C)nc3-c3ccccc3)c2nc1NC(=O)C1(C)CCCO1` (stereo not drawn) [Example 316, N-(7-methoxy-4-(1-methyl-3-phenyl-1H-pyrazol-4-yl)pyrido[3,2-d]pyrimidin-6-yl)-2-methyltetrahydrofuran-2-carboxamide]: the 50% inhibitory concentration (IC50) was 3.1 nM in test [1], 3.5 nM on EGFR L858R and 0.8 nM on EGFR (d746-750).

Consider `COc1cc2ncnc(-c3cn(C)nc3-c3ccccc3F)c2nc1NC(=O)C1(C(F)(F)F)CC1` [Example 317, N-(4-(3-(2-fluorophenyl)-1-methyl-1H-pyrazol-4-yl)-7-methoxypyrido[3,2-d]pyrimidin-6-yl)-1-(trifluoromethyl)cyclopropane-1-carboxamide], for which the half-maximal inhibitory concentration (IC50) in test [1] turned out to be 1.5 nM; on EGFR L858R it was 2.7 nM; at EGFR (d746-750), 1.2 nM.

As for `COc1cc2ncnc(-c3cn(C)nc3-c3ccccc3)c2nc1NC(=O)c1cnc(C2CC2)s1` [Example 318, 2-cyclopropyl-N-(7-methoxy-4-(1-methyl-3-phenyl-1H-pyrazol-4-yl)pyrido[3,2-d]pyrimidin-6-yl)thiazole-5-carboxamide], the IC50 in test [1] was found to be 0.7 nM; on EGFR L858R, 0.7 nM; at EGFR (d746-750) it was 0.4 nM.

For `CCn1cc(-c2ncnc3cc(OC)c(NC(=O)c4cnn(CCN(C)C)c4)nc23)c(-c2ccccc2)n1` [Example 319, 1-(2-(dimethylamino)ethyl)-N-(4-(1-ethyl-3-phenyl-1H-pyrazol-4-yl)-7-methoxypyrido[3,2-d]pyrimidin-6-yl)-1H-pyrazole-4-carboxamide], the figures for the IC50 (in test [1]; at EGFR L858R; at EGFR (d746-750)) were 0.4 nM, 1.1 nM and 0.7 nM, respectively.

With `[2H]C([2H])([2H])n1cc(-c2ncnc3cc(OC)c(NC(=O)C4(C(F)(F)F)CC4)nc23)c(-c2ccccc2)n1` [Example 320, N-(7-methoxy-4-(1-(methyl-d3)-3-phenyl-1H-pyrazol-4-yl)pyrido[3,2-d]pyrimidin-6-yl)-1-(trifluoromethyl)cyclopropane-1-carboxamide], the IC50 was 1.1 nM in test [1], 2 nM on EGFR L858R and 0.6 nM at EGFR (d746-750).

As to `COc1cc2ncnc(-c3cn(C)nc3-c3ccccc3)c2cc1NC(=O)c1cncc(C)c1` [Example 321, N-(7-methoxy-4-(1-methyl-3-phenyl-1H-pyrazol-4-yl)quinazolin-6-yl)-5-methylnicotinamide], the IC50 in test [1] is 5.3 nM; on EGFR L858R it was 5.2 nM; on EGFR (d746-750), 2.7 nM.

For the compound `CCC(=O)Nc1cc2c(-c3cn(C)nc3-c3ccccc3)ncnc2cc1OC` [Example 322, N-(7-methoxy-4-(1-methyl-3-phenyl-1H-pyrazol-4-yl)quinazolin-6-yl)propionamide], the IC50 came to 1.6 nM in test [1], 2.1 nM on EGFR L858R and 1.7 nM at EGFR (d746-750).

Consider `COc1cc2ncnc(-c3cn(C)nc3-c3ccccc3)c2cc1NC(=O)c1ccc(C)nc1` [Example 323, N-(7-methoxy-4-(1-methyl-3-phenyl-1H-pyrazol-4-yl)quinazolin-6-yl)-6-methylnicotinamide], for which the results for the IC50 (in test [1]; on EGFR L858R; at EGFR (d746-750)) were 3.9 nM, 3.3 nM and 1.6 nM, respectively.

Consider `COc1cc2ncnc(-c3cn(C)nc3-c3ccccc3)c2cc1NC(=O)c1ccc(F)cn1` [Example 324, 5-fluoro-N-(7-methoxy-4-(1-methyl-3-phenyl-1H-pyrazol-4-yl)quinazolin-6-yl)picolinamide], for which the half-inhibitory concentration (IC50) turned out to be 2.6 nM in test [1], 3.8 nM on EGFR L858R and 2 nM on EGFR (d746-750).

In the case of `COc1cc2ncnc(-c3cn(C)nc3-c3ccccc3)c2cc1NC(=O)c1cccnc1` [Example 325, N-(7-methoxy-4-(1-methyl-3-phenyl-1H-pyrazol-4-yl)quinazolin-6-yl)nicotinamide], the IC50 in test [1] worked out at 2 nM; on EGFR L858R, 1.7 nM; at EGFR (d746-750), 1 nM.

For `COc1cc2ncnc(-c3cn(C)nc3-c3ccccc3)c2cc1NC(=O)c1cnccc1F` [Example 326, 4-fluoro-N-(7-methoxy-4-(1-methyl-3-phenyl-1H-pyrazol-4-yl)quinazolin-6-yl) nicotinamide], the IC50 turned out to be 1 nM in test [1], 1.2 nM on EGFR L858R and 0.8 nM on EGFR (d746-750).

`COc1cc2ncnc(-c3cn(C)nc3-c3ccccc3)c2cc1NC(=O)c1cncc(F)c1` [Example 327, 5-fluoro-N-(7-methoxy-4-(1-methyl-3-phenyl-1H-pyrazol-4-yl)quinazolin-6-yl)nicotinamide]: the IC50 in test [1] is 10.4 nM; on EGFR L858R, 10.4 nM; on EGFR (d746-750), 5.1 nM.
